# Assay results published in PMC10041525, “New Dual Inhibitors of Bacterial Topoisomerases with Broad-Spectrum Antibacterial Activity and In Vivo Efficacy against Vancomycin-Intermediate Staphylococcus aureus” (Journal of Medicinal Chemistry, 2023).
# Where “and” joins values, the source holds several entries; their conditions need not be identical. Equal entries are not always repeated. Where two headings read alike, the source gives them in different places.
# Key:
# topo IV from E. coli = biological target: T1, topo IV from E. coli (Escherichia coli, UniProt P20083); assay: relaxation HTS plate assay; type: biochemical; conditions: IC50
# T1 construct: purchased Inspiralis
# Experimental: (§1) All compounds were tested for their inhibitory activities against DNA gyrase and topo IV from E. coli in supercoiling and relaxation high-throughput plate assays, respectively. Our new series of inhibitors were then tested against a panel of Gram-positive and Gram-negative bacteria.
# (§2) Seven concentrations of the inhibitors were used to determine IC50 values which were then calculated with GraphPad Prism 6.0 software. Three independent measurements were performed to determine IC50 values, and mean values are reported as the final result.
# E. coli ATCC 25922 = assay: MIC broth microdilution (CLSI); type: cell-based; conditions: Escherichia coli, ATCC25922; read-out: MIC
# Experimental: (§3) MICs (Tables 1 and S1–S3) were determined with a standard serial broth microdilution technique according to Clinical and Laboratory Standards Institute (CLSI) guidelines.[45] Cation-adjusted Mueller Hinton broth 2 (MHBII) was used for bacterial growth under standard laboratory conditions and for antimicrobial susceptibility tests. MHBII broth was prepared by dissolving 22 g of MHBII powder [containing beef extract (3 g), acid hydrolysate of casein (17.5 g), and starch (1.5 g); Becton Dickinson and Co.] in 1 L of water. To prepare MHBII agar, 14 g of agar (Bacto; Molar Chemicals) was added to 1 L of broth.
# (§4) Bacterial strains were inoculated onto MHBII agar plates and grown overnight at 37 °C. Next, three individual colonies from each strain were inoculated into 1 mL of MHBII medium and propagated at 37 °C overnight, with agitation at 250 rpm. For Enterococcus sp., the cells were plated in brain–heart infusion [(BHI) medium] agar plates, and BHI broth was used to determine the MICs. […] The highest final DMSO concentration in the experiments was 0.64% (in the case of the 64 μg/mL concentration of the inhibitor). Following the dilutions, each well was seeded with 5 × 10^4 bacterial cells (in 100 μL final volume). Each measurement was performed in three parallel replicates, and to avoid possible edge effects in the microwell plates, the outside rows (A, H) were filled with sterile medium. Following the inoculations, the plates were covered with the lids and wrapped in polyethylene plastic bags, to minimize evaporation but to allow O2 transfer. The plates were incubated at 37 °C under continuous shaking at 150 rpm for 18 h. After incubation, the OD600 of each well was measured using a microplate reader (Synergy 2; Biotek). The MICs were defined as the antibiotic concentrations which inhibited the growth of the bacterial cultures; that is, the drug concentration where the average OD600 increment of the three technical replicates was below 1.5-fold the background OD increment.
# [1] = system: S. aureus (MRSA) ATCC 43300; assay: MIC broth microdilution (CLSI); type: cell-based; conditions: Staphylococcus aureus
# Experimental: as §3, §4
# [2] = system: Enterobacter cloacae spp. cloacae ATCC 13047; assay: MIC broth microdilution (CLSI); type: cell-based; conditions: Enterobacter cloacae, ATCC13047; read-out: MIC
# Experimental: as §3, §4
# P. aeruginosa ATCC 27853 = assay: MIC broth microdilution (CLSI); type: cell-based; conditions: Pseudomonas aeruginosa, ATCC27853; read-out: MIC
# Experimental: as §3, §4
# K. pneumoniae ATCC 10031 = assay: MIC broth microdilution (CLSI); type: cell-based; conditions: Klebsiella pneumoniae, ATCC10031; read-out: MIC
# Experimental: as §3, §4
# [3] = system: Enterococcus faecalis ATCC 29212; assay: MIC broth microdilution (CLSI); type: cell-based, E. faecalis; conditions: Enterococcus faecalis, ATCC29212; read-out: MIC
# Experimental: as §3, §4
# DNA gyrase from E. coli = biological target: T2, DNA gyrase from E. coli (Escherichia coli, UniProt P0AES6); assay: supercoiling HTS plate assay; type: biochemical; conditions: IC50 [nM] E. coli DNA gyrase
# T2 construct: purchased Inspiralis
# Experimental: as §1, §2
# S. aureus ATCC 29213 = assay: MIC broth microdilution (CLSI); type: cell-based; conditions: Staphylococcus aureus, ATCC29213
# Experimental: as §3, with “Cation-adjusted” for “MICs (Tables 1 and S1–S3) were determined with a standard serial broth microdilution technique according to Clinical and Laboratory Standards Institute (CLSI) guidelines.[45] Cation-adjusted”
# (§5) Bacterial strains were inoculated onto MHBII agar plates and grown overnight at 37 °C. Next, three individual colonies from each strain were inoculated into 1 mL of MHBII medium and propagated at 37 °C overnight, with agitation at 250 rpm. For Enterococcus sp., the cells were plated in brain–heart infusion [(BHI) medium] agar plates, and BHI broth was used to determine the MICs. […] Following the dilutions, each well was seeded with 5 × 10^4 bacterial cells (in 100 μL final volume). Each measurement was performed in three parallel replicates, and to avoid possible edge effects in the microwell plates, the outside rows (A, H) were filled with sterile medium. Following the inoculations, the plates were covered with the lids and wrapped in polyethylene plastic bags, to minimize evaporation but to allow O2 transfer. […] After incubation, the OD600 of each well was measured using a microplate reader (Synergy 2; Biotek).
# A. baumannii ATCC 17978 = assay: MIC broth microdilution (CLSI); type: cell-based; conditions: Acinetobacter baumannii, ATCC17978
# Experimental: as §3, with “Cation-adjusted” for “MICs (Tables 1 and S1–S3) were determined with a standard serial broth microdilution technique according to Clinical and Laboratory Standards Institute (CLSI) guidelines.[45] Cation-adjusted”
# as §5
# [4] = system: 3 sensitive and 7 MDR A. baumannii clinical isolates; assay: MIC, Hungarian clinical isolates and controls (384-well); type: cell-based
# [5] = system: Chinese hamster ovary K1 cells; assay: in vitro micronucleus test; conditions: without S9, 1 µM
# [6] = system: S. aureus ATCC 700699 (VISA); type: in vivo, female CD-1 mice
# Experimental: The neutropenic mouse thigh infection model study was performed by NeoSome Life Sciences, LLC (Lexington, MA, USA) according to NeoSome Institutional Animal Care and Use Committee (IACUC) policies and guidelines as well as NIH’s Office of Laboratory Animal Welfare (OLAW) standards.
# Neutropenic mouse thigh infection experiments were performed on female CD-1 mice (Charles River Laboratories, USA). To induce neutropenia, mice received two doses of cyclophosphamide on days −4 and −1 with 150 and 100 mg/kg delivered intraperitoneally (IP), respectively. The inoculum of the testing strain, S. aureus ATCC 700699-P1 (VISA), was prepared from overnight agar plate cultures. To prepare bacterial inoculums, a portion of the plate was resuspended in sterile saline and adjusted to an OD of 0.12 at 625 nm. Next, the resulted bacterial suspension was further diluted to reach an infecting inoculum of 6.0 × 10^5 cfu per each mouse. Plate counts of the inoculum were also performed in each case to confirm the inoculum concentration, and the actual inoculum size was 7.25 × 10^5 cfu/mouse. Mice were inoculated with 100 μL of the prepared bacterial suspension via an intramuscular injection into the right rear thigh. […] The test agent was then dosed via IV administration, to ensure optimal distribution, at 2, 10, and 18 h post-infection. Beginning at 2 h, post-infection mice were dosed with either test article or positive control antibiotic. Mice receiving test agents were dosed intravenously at 10 mL/kg. Linezolid was delivered as a SC dose to ensure optimized exposure, distribution, and efficacy. Four animals were dosed per group. One group of four mice was euthanized at the initiation of therapy (t = 2 h) and cfus determined. All remaining mice were euthanized at 26 h post-infection. At termination, thighs were aseptically excised, weighed, and homogenized to a uniform consistency in 2 mL of sterile saline. The homogenate was serially diluted and plated on bacterial growth media. The cfus were enumerated after overnight incubation.
# T1 sequence (P0AFI2 whole entry): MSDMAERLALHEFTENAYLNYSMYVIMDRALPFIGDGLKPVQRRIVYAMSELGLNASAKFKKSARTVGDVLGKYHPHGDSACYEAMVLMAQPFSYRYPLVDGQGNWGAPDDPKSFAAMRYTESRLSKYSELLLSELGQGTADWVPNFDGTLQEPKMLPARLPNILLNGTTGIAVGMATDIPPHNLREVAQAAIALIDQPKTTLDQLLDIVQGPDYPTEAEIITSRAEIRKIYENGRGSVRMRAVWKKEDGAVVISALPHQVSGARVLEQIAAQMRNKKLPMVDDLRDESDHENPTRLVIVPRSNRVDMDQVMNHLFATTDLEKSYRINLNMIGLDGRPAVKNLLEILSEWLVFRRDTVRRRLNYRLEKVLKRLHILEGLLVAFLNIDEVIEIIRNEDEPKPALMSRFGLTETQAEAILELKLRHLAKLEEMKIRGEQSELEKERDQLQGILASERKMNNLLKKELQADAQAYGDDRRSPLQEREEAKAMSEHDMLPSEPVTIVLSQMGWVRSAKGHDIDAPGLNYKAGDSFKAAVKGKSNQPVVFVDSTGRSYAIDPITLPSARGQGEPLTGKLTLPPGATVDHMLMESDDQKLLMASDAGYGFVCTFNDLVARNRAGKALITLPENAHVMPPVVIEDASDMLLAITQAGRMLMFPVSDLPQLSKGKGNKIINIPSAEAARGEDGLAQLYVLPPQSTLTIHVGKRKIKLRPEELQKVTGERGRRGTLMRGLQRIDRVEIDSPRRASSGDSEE
# T1 sequence (P20083 whole entry): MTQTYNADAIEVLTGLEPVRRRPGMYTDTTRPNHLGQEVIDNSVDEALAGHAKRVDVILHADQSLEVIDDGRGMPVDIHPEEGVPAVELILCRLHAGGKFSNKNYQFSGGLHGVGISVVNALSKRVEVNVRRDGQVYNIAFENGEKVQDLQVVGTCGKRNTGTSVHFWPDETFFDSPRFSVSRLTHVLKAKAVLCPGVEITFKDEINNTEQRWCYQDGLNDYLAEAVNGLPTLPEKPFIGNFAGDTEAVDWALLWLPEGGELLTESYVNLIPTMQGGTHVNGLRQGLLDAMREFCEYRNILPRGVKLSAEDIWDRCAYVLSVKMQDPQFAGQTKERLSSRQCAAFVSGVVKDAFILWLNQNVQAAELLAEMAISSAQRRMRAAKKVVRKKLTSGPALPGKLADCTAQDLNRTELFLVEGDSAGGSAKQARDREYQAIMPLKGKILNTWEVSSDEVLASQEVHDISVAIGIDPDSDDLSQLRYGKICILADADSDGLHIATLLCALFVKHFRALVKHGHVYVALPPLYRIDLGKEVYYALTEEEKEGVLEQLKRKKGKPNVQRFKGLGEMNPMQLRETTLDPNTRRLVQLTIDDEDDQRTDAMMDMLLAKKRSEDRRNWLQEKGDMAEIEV
compound,measurement,setting,value
"COCCCNc1cc(C(=O)O)cc2sc(NC(=O)c3[nH]c(C)c(Cl)c3Cl)nc12.N [8c, 2-(3,4-Dichloro-5-methyl-1H-pyrrole-2-carboxamido)-4-((3-methoxypropyl)amino)benzo[d]thiazole-6-carboxylic Acid]",IC50,topo IV from E. coli,190 ± 6 nM
same,MIC,E. coli ATCC 25922,8 µg/mL
same,MIC,[1]; read-out: MIC,< 0.0312 µg/mL
same,MIC,[1]; read-out: MIC [µg/mL](S. aureus MRSA ATCC4330),< 0.0312 µg/mL
same,MIC,[2],> 64 µg/mL
same,MIC,P. aeruginosa ATCC 27853,8 µg/mL
same,MIC,K. pneumoniae ATCC 10031,2 µg/mL
same,MIC,[3],> 0.0312 µg/mL
same,IC50,DNA gyrase from E. coli,15 ± 5 nM
same,MIC,S. aureus ATCC 29213; read-out: MIC,< 0.0312 µg/mL
same,MIC,S. aureus ATCC 29213; read-out: MIC [µg/mL](S. aureus ATCC 29213),< 0.0312 µg/mL
same,MIC,A. baumannii ATCC 17978; read-out: MIC,2 µg/mL
same,MIC,A. baumannii ATCC 17978; read-out: MIC [µg/mL] (A. baumannii ATCC 17978),2 µg/mL
"NCC[C@H](O)C(=O)N[C@@H]1C[C@H](N)[C@@H](O[C@H]2O[C@H](CN)[C@@H](O)[C@H](O)[C@H]2O)[C@H](O)[C@H]1O[C@H]1O[C@H](CO)[C@@H](O)[C@H](N)[C@H]1O [Amikacin, amikacin]",Cumulative % at MIC,"[4]; n=10, MIC 2 µg/mL",10%
same,Cumulative % at MIC,"[4]; n=10, MIC 256 µg/mL",100%
"C[C@@H](O)[C@H]1C(=O)N2C(C(=O)O)=C(S[C@@H]3CN[C@H](CNS(N)(=O)=O)C3)[C@H](C)[C@H]12 [Doripenem, doripenem]",Cumulative % at MIC,"[4]; n=10, MIC 0.0625 µg/mL",10%
same,Cumulative % at MIC,"[4]; n=10, MIC 2 µg/mL",30%
same,Cumulative % at MIC,"[4]; n=10, MIC 128 µg/mL",60%
same,Cumulative % at MIC,"[4]; n=10, MIC 256 µg/mL",100%
same,Cumulative % at MIC,"[4]; n=10, MIC […]",20%
CO[C@@]12[C@H](COC(N)=O)C3=C(C(=O)C(C)=C(N)C3=O)N1C[C@@H]1N[C@@H]12 [Mitomycin C],No. binucleate cells,[5],920
"NC[C@H]1O[C@H](O[C@H]2[C@H](O)[C@@H](O[C@H]3O[C@H](CO)[C@@H](O)[C@H](N)[C@H]3O)[C@H](N)C[C@@H]2N)[C@H](N)C[C@@H]1O [Tobramycin, tobramycin]",Cumulative % at MIC,"[4]; n=10, MIC 1 µg/mL",10%
same,Cumulative % at MIC,"[4]; n=10, MIC 2 µg/mL",20%
same,Cumulative % at MIC,"[4]; n=10, MIC […] µg/mL",70%
same,Cumulative % at MIC,"[4]; n=10, MIC 256 µg/mL",100%
same,Cumulative % at MIC,"[4]; n=10, MIC […] µg/mL",60%
CC(=O)NC[C@H]1CN(c2ccc(N3CCOCC3)c(F)c2)C(=O)O1 [linezolid],Change in log10CFU/gr of thigh from 2 hour control,[6]; 50 mg/kg BID/SC,-0.61
same,Average log10CFU/gr of thigh,"[6]; 50 mg/kg BID/SC, 26 h",5.69
same,reduction compared to 2 hour infection controls,[6]; 50 mg/kg SC (BID),0.61 log10 cfu
same,reduction compared to 26 hour infection controls,[6]; 50 mg/kg SC (BID),2.41 log10 cfu
same,"CFU/ g of thigh, single animals",[6]; linezolid group,7.27E+05 and 7.86E+05 and 5.42E+05 and 1.84E+05
same,"log CFU, single animals",[6]; linezolid group,5.86 and 5.90 and 5.73 and 5.26
colistin,Cumulative % at MIC,[4],50% and 70% and 100%
same,MIC inhibiting all strains,[4]; all 10 isolates,4 µg/mL
imipenem/relebactame,Cumulative % at MIC,"[4]; n=10, MIC 0.5 µg/mL",20%
same,Cumulative % at MIC,"[4]; n=10, MIC 2 µg/mL",30%
same,Cumulative % at MIC,"[4]; n=10, MIC 64 µg/mL",70%
same,Cumulative % at MIC,"[4]; n=10, MIC 128 µg/mL",90%
same,Cumulative % at MIC,"[4]; n=10, MIC 256 µg/mL",100%
trimethoprim/sulfamethoxazole,Cumulative % at MIC,"[4]; n=10, MIC […] µg/mL",20%
same,Cumulative % at MIC,"[4]; n=10, MIC 32 µg/mL",70%
same,Cumulative % at MIC,"[4]; n=10, MIC 64 µg/mL",100%
